Measurements: ChEMBL document CHEMBL1129860, “Studies on penam sulfones III. Synthesis and -lactamase inhibitory activity of sodium (6R)-6-(-hydroxybenzyl)-2-methoxyiminomethyl-2-methylpenam-3-carboxylate 1,1-dioxide and sodium 2-acyl-2-methylpenam-3-carboxylate 1,1-dioxide” (1997)
Values after ≈ are worked out from the molar mass of the structure shown. Values belong to the compound of their own block, whether it stands above or below them.

Experiments:
[1] = test system: Escherichia coli; assay: In vitro minimal inhibitory concentration (MIC) of compound in combination with Ceftazidime (CAZ) showed synergic activity against Escherichia coli TEM 3; type: functional
[2] = test system: Enterobacter cloacae; assay: In vitro minimal inhibitory concentration (MIC) of compound in combination with Ceftazidime (CAZ) showed synergic activity against Enterobacter cloacae 40011; type: functional
[3] = test system: Citrobacter freundii; assay: In vitro minimal inhibitory concentration (MIC) of compound in combination with Ceftazidime (CAZ) showed synergic activity against Citrobacter freundii CT 76; type: functional
[4] = test system: Pseudomonas aeruginosa; assay: In vitro minimal inhibitory concentration (MIC) of compound in combination with Ceftazidime (CAZ) showed synergic activity against Pseudomonas aeruginosa 46220 (DR-2); type: functional
[5] = test system: Citrobacter freundii; assay: In vitro minimal inhibitory concentration (MIC) of compound in combination with Ceftazidime (CAZ) showed synergic activity against Citrobacter freundii 44032; type: functional
[6] = test system: Escherichia coli; assay: In vitro minimal inhibitory concentration (MIC) of compound in combination with Ceftazidime (CAZ) showed synergic activity against Escherichia coli TEM 7; type: functional
[7] = test system: Morganella morganii; assay: In vitro minimal inhibitory concentration (MIC) of compound in combination with Ceftazidime (CAZ) showed synergic activity against Morganella morganii 36014; type: functional
[8] = test system: Klebsiella pneumoniae; assay: In vitro minimal inhibitory concentration (MIC) of compound in combination with Ceftazidime (CAZ) showed synergic activity against Klebsiella pneumoniae CTX 1; type: functional
[9] = test system: Klebsiella aerogenes; assay: In vitro minimal inhibitory concentration (MIC) of compound in combination with Ceftazidime (CAZ) showed synergic activity against Enterobacter aerogenes 41003; type: functional
[10] = test system: Enterobacter cloacae; assay: In vitro minimal inhibitory concentration (MIC) of compound in combination with Ceftazidime (CAZ) showed synergic activity against Enterobacter cloacae P99; type: functional
[11] = test system: Klebsiella aerogenes; assay: In vitro minimal inhibitory concentration (MIC) of compound in combination with Ceftazidime (CAZ) showed synergic activity against Enterobacter aerogenes 41004; type: functional
[12] = test system: Enterobacter cloacae; assay: In vitro minimal inhibitory concentration (MIC) of compound in combination with Ceftazidime (CAZ) showed synergic activity against Enterobacter cloacae E40002; type: functional
[13] = test system: Klebsiella aerogenes; assay: In vitro minimal inhibitory concentration (MIC) of compound in combination with Ceftazidime (CAZ) showed synergic activity against Enterobacter aerogenes 41006; type: functional
[14] = test system: Proteus vulgaris; assay: In vitro minimal inhibitory concentration (MIC) of compound in combination with Ceftazidime (CAZ) showed synergic activity against Proteus vulgaris CT 106; type: functional
[15] = test system: Proteus vulgaris; assay: In vitro minimal inhibitory concentration (MIC) of compound against Proteus vulgaris CT 106; type: functional
[16] = test system: Escherichia coli; assay: In vitro minimal inhibitory concentration (MIC) of compound against Escherichia coli TEM 3; type: functional
[17] = test system: Citrobacter freundii; assay: In vitro minimal inhibitory concentration (MIC) of compound against Citrobacter freundii CT 76; type: functional
[18] = test system: Pseudomonas aeruginosa; assay: In vitro minimal inhibitory concentration (MIC) of compound against Pseudomonas aeruginosa 46220 (DR-2); type: functional
[19] = test system: Enterobacter cloacae; assay: In vitro minimal inhibitory concentration (MIC) of compound against Enterobacter cloacae E40002; type: functional
[20] = test system: Klebsiella aerogenes; assay: In vitro minimal inhibitory concentration (MIC) of compound against Enterobacter aerogenes S-97; type: functional
[21] = test system: Escherichia coli; assay: In vitro minimal inhibitory concentration (MIC) of compound against Escherichia coli TEM 7; type: functional
[22] = test system: Pseudomonas aeruginosa; assay: In vitro minimal inhibitory concentration (MIC) of compound against Pseudomonas aeruginosa CT-137; type: functional
[23] = test system: Klebsiella aerogenes; assay: In vitro minimal inhibitory concentration (MIC) of compound against Enterobacter aerogenes 41004; type: functional
[24] = test system: Pseudomonas aeruginosa; assay: In vitro minimal inhibitory concentration (MIC) of compound against Pseudomonas aeruginosa CT-122; type: functional
[25] = test system: Enterobacter cloacae; assay: In vitro minimal inhibitory concentration (MIC) of compound against Enterobacter cloacae P99; type: functional
[26] = test system: Klebsiella aerogenes; assay: In vitro minimal inhibitory concentration (MIC) of compound against Enterobacter aerogenes 41006; type: functional
[27] = test system: Klebsiella aerogenes; assay: In vitro minimal inhibitory concentration (MIC) of compound against Enterobacter aerogenes 41003; type: functional
[28] = test system: Morganella morganii; assay: In vitro minimal inhibitory concentration (MIC) of compound against Morganella morganii 36030; type: functional
[29] = test system: Citrobacter freundii; assay: In vitro minimal inhibitory concentration (MIC) of compound against Citrobacter freundii 44032; type: functional
[30] = test system: Enterobacter cloacae; assay: In vitro minimal inhibitory concentration (MIC) of compound against Enterobacter cloacae S-11; type: functional
[31] = test system: Enterobacter cloacae; assay: In vitro minimal inhibitory concentration (MIC) of compound against Enterobacter cloacae 40011; type: functional
[32] = test system: Klebsiella pneumoniae; assay: In vitro minimal inhibitory concentration (MIC) of compound against Klebsiella pneumoniae CTX 1; type: functional
[33] = test system: Enterobacter cloacae; assay: In vitro minimal inhibitory concentration (MIC) of compound against Enterobacter cloacae S-65; type: functional
[34] = test system: Morganella morganii; assay: In vitro minimal inhibitory concentration (MIC) of compound against Morganella morganii 36014; type: functional
[35] = test system: Pseudomonas aeruginosa; assay: microbe, parasite or virus in culture
[36] = test system: Morganella morganii; assay: In vitro minimal inhibitory concentration (MIC) of compound in combination with Ceftazidime (CAZ) showed synergic activity against Morganella morganii 36030; type: functional
[37] = test system: Enterobacter cloacae; assay: In vitro minimal inhibitory concentration (MIC) of compound in combination with Ceftazidime (CAZ) showed synergic activity against Enterobacter cloacae S-11; type: functional
[38] = test system: Enterobacter cloacae; assay: In vitro minimal inhibitory concentration (MIC) of compound in combination with Ceftazidime (CAZ) showed synergic activity against Enterobacter cloacae S-65; type: functional
[39] = test system: Klebsiella aerogenes; assay: In vitro minimal inhibitory concentration (MIC) of compound in combination with Ceftazidime (CAZ) showed synergic activity against Enterobacter aerogenes S-97; type: functional
[40] = test system: Pseudomonas aeruginosa; assay: microbe, parasite or virus in culture; remark: listed apart in the source
[41] = Morganella morganii, read-out: MIC

MIC [1]: 0.39 µg/mL | MIC [2]: 1.56 µg/mL | MIC [3]: 12.5 µg/mL | MIC [4]: 6.25 µg/mL | MIC [5]: 12.5 µg/mL | MIC [6]: 0.39 µg/mL | MIC [7]: ≤ 0.2 µg/mL | MIC [8]: 1.56 µg/mL | MIC [9]: 1.56 µg/mL | MIC [10]: 6.25 µg/mL | MIC [11]: 1.56 µg/mL | MIC [12]: 12.5 µg/mL | MIC [13]: 12.5 µg/mL | MIC [14]: 1.56 µg/mL
SMILES: CC(=O)[C@@]1(C)[C@H](C(=O)[O-])N2C(=O)CC2S1(=O)=O.CC(C)(O/N=C(\C(=O)NC1C(=O)N2C(C(=O)[O-])=C(C[n+]3ccccc3)CSC12)c1csc(N)n1)C(=O)O.[Na+] (centres undefined)

SMILES: CC(C)(O/N=C(\C(=O)N[C@@H]1C(=O)N2C(C(=O)[O-])=C(C[n+]3ccccc3)CS[C@H]12)c1csc(N)n1)C(=O)O [CEFTAZIDIME]
MIC [15]: 12.5 µg/mL (≈ 22.9 µM) | MIC [16]: 25 µg/mL (≈ 45.7 µM) | MIC [17]: 50 µg/mL (≈ 91.5 µM) | MIC [18]: 25 µg/mL (≈ 45.7 µM) | MIC [19]: 200 µg/mL (≈ 366 µM) | MIC [20]: 8 µg/mL (≈ 14.6 µM) | MIC [21]: 12.5 µg/mL (≈ 22.9 µM) | MIC [22]: 16 µg/mL (≈ 29.3 µM) | MIC [23]: 12.5 µg/mL (≈ 22.9 µM) | MIC [24]: 32 µg/mL (≈ 58.5 µM) | MIC [25]: 100 µg/mL (≈ 183 µM) | MIC [26]: 200 µg/mL (≈ 366 µM) | MIC [27]: 12.5 µg/mL (≈ 22.9 µM) | MIC [28]: > 32 µg/mL | MIC [29]: 400 µg/mL (≈ 732 µM) | MIC [30]: 2 µg/mL (≈ 3.66 µM) | MIC [31]: 25 µg/mL (≈ 45.7 µM) | MIC [32]: 100 µg/mL (≈ 183 µM) | MIC [33]: 2 µg/mL (≈ 3.66 µM) | MIC [34]: 25 µg/mL (≈ 45.7 µM) | MIC [34, 41]: > 32 µg/mL

MIC [35]: 16 µg/mL | MIC [7, 41]: < 0.25 µg/mL | MIC [36]: < 0.25 µg/mL | MIC [37]: < 0.25 µg/mL | MIC [38]: < 0.25 µg/mL | MIC [39]: 0.5 µg/mL | MIC [40]: 32 µg/mL
SMILES: CC(C)(O/N=C(\C(=O)NC1C(=O)N2C(C(=O)[O-])=C(C[n+]3ccccc3)CSC12)c1csc(N)n1)C(=O)O.CO/N=C/[C@@]1(C)[C@H](C(=O)[O-])N2C(=O)CC2S1(=O)=O.[Na+] (centres undefined)

MIC [35]: 16 µg/mL | MIC [7, 41]: 2 µg/mL | MIC [36]: 1 µg/mL | MIC [37]: < 0.25 µg/mL | MIC [38]: < 0.25 µg/mL | MIC [39]: 4 µg/mL | MIC [40]: 32 µg/mL
SMILES: CC(C)(O/N=C(\C(=O)NC1C(=O)N2C(C(=O)[O-])=C(C[n+]3ccccc3)CSC12)c1csc(N)n1)C(=O)O.CO/N=C/[C@@]1(C)[C@H](C(=O)[O-])N2C(=O)[C@@H]([C@@H](O)c3ccccc3)[C@H]2S1(=O)=O.[Na+] (centres undefined)
